# Source: patent US20240246995A1, “PYRIMIDINONE DERIVATIVE AND PREPARATION METHOD THEREFOR, PHARMACEUTICAL COMPOSITION, AND USE” (SHANGHAI SIMR BIOTECHNOLOGY CO., LTD., priority 2021, published 2024)
# pIC50: −log10 of the molar value.
# Molecular target: T1, Lipoprotein-Related Phospholipase A2 (Lp-PLA2) in Human Plasma (Homo sapiens, UniProt Q13093)
# T1 construct: 40 μL of equally-divided and thawed mixed human plasma is pre-added; from tissue; host or cells: mixed (pooled) human plasma
# T1 sequence (Q13093 22-441): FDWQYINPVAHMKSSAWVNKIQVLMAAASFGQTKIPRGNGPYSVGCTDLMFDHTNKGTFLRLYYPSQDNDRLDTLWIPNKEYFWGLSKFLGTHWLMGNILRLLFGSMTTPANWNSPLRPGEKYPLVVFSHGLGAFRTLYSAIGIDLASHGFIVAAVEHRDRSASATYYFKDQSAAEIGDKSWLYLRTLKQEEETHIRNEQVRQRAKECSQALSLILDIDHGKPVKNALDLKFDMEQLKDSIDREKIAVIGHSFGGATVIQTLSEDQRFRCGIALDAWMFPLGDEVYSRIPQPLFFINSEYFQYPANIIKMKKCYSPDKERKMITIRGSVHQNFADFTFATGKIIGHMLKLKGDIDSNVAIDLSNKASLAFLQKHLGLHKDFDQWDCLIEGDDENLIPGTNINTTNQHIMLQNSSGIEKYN
# Assay: Determination of Lp-PLA2 in human plasma (Thio-PAF assay)
# Assay type: biochemical
# Conditions: mixed human plasma, 2-thio-PAF substrate, 30 minutes pre-incubation at room temperature
# Text: Determination of Lipoprotein-Related Phospholipase A2 (Lp-PLA2) in Human Plasma.
# Human plasma determination utilizes a thioester analogue of phosphatidylcholine (PAF), where hydrolysis leads to the formation of phospholipids containing free thiol groups. The amount of the thiol groups is continuously determined by reacting with CPM (7-diethylamino-3-(4′-maleimidophenyl)-4-methylcoumarin), which is maleimide with increased fluorescence after Michael addition of the thiol groups. This determination can detect the activity of Lp-PLA2 in human plasma, for example, determined by the specific inhibition of the Lp-PLA2 inhibitors.
# Thio-PAF determination, as quenched 75 μL determination, is carried out. A compound source plate is prepared by preparing a 1:3 (volume) series of diluents of each compound in pure DMSO on a 96-well microplate. A Rainin multi-channel pipette is used to transfer 3 μL of a compound on the compound source plate into a 96-well microplate where 57 μL of a determination buffer is pre-added, and the compound on the source plate is diluted by 20 folds. The above determination buffer contains 50 mM HEPES (pH 7.4), 150 mM NaCl, and 1 mM CHAPS. A Rainin multi-channel pipette is used to transfer 1 μL of the compound subjected to 20-fold dilution into a 96-well Greiner 655076 (black) microplate where 40 μL of equally-divided and thawed mixed human plasma is pre-added. The plate is oscillated for 20 seconds in an Elisa plate oscillator to be mixed evenly. After 30 minutes of pre-incubation at the room temperature, a Rainin multi-channel pipette is used to add 10 μL of a substrate solution to a 96-well Greiner 655076 (black) microplate, and the substrate solution contains 2.5 mM 2-thio-PAF [from ethanol mother liquor], 32 μM CPM [from DMSO mother liquor] and 3.2 mM NEM (N-ethylmaleimide) [newly prepared in DMSO for each experiment] in a determination buffer composed of 50 mM HEPES (pH 7.4), 150 mM NaCl, and 1 mM CHAPS. After 2 minutes, 25 μL of a 5% trifluoroacetic acid (TFA) aqueous solution is used for quenching the reaction. The plate is centrifuged at 2000 rpm for 1 minute. A Biotek Synergy H1 (H1MF) Elisa reader is used to read the plate at ex:380/em:485. GraphPad Prism 6.0 and Excel are used for IC50 data, curve, and QC analysis.
row,Structure (SMILES),pIC50
1,"CCC12CCCN1c1cc(OCc3cc(F)c(Oc4ccc(Cl)c(C(F)(F)F)c4)c(F)c3)nc(=O)n1CC2 (stereo not drawn) [Example 39, 2-((4-(4-chloro-3-(trifluoromethyl)phenoxy)-3,5-difluorobenzyl)oxy)-7a-ethyl-6,7,7a,8,9, 10-hexahydro-4H-pyrimidinyl[1,6-a] pyrrolo[1,2-c] pyrimidine-4-one]",7.48
2,CCC12CCCN1c1cc(OCc3ccc(Oc4cccc(C(F)(F)F)c4)c(C#N)c3)nc(=O)n1CC2 (stereo not drawn) [Example 40],7.97
3,"CCC12CCCN1c1cc(OCCc3ccc(Oc4ccc(Cl)c(C(F)(F)F)c4)cc3)nc(=O)n1CC2 (stereo not drawn) [Example 41, 2-(4-(4-chloro-3-(trifluoromethyl)phenoxy)phenyl-ethoxy)-7a-ethyl-6,7,7a, 8,9,10-hexahydro-4H-pyrimidine [1,6-a]pyrrole[1,2-c]pyrimidine-4-one]",6.63
4,"O=c1nc(OCc2cc(F)c(Oc3ccc(Cl)c(C(F)(F)F)c3)c(F)c2)cc2n1CCC1CCCCN21 (stereo not drawn) [Example 43, 2-((4-(4-chloro-3-(trifluoromethyl)phenoxy)-3,5-di-fluorobenzyl)oxy)-7,7a,8,9,10,11-hexahydro-4H,6H-pyri-dyl[1,2-c]pyrimido [1,6-a]pyrimidine-4-one]",7.92
5,N#Cc1cc(COc2cc3n(c(=O)n2)CCC2CCCCN32)ccc1Oc1cccc(C(F)(F)F)c1 (stereo not drawn) [Example 44],7.83
6,"O=c1nc(OCc2cc(F)c(Oc3cnc(C(F)(F)F)nc3)c(F)c2)cc2n1CCC1CCCCN21 (stereo not drawn) [Example 45, 2-((3,5-difluoro-4-((2-(trifluoromethyl)pyrimidin-5-yl)oxy)benzyl)oxy)-7,7a,8,9,10,11-hexahydro-4H,6H-pyridino[1,2-c]pyri-mido[1,6-a] pyrimidine-4-one]",7.18
7,"O=c1nc(OCCc2ccc(Oc3ccc(Cl)c(C(F)(F)F)c3)cc2)cc2n1CCC1CCCCN21 (stereo not drawn) [Example 46, 2-(4-(4-chloro-3-(trifluoromethyl)phenoxy)phenylethoxy)-7,7a,8,9,10,11-hexahydro-4H, 6H-pyridyl[1,2-c] pyrimidinyl[1,6-a] pyrimidine-4-one]",6.66
8,"O=c1nc(OCc2cc(F)c(Oc3ccnc(C(F)(F)F)c3)c(F)c2)cc2n1CCC1COCCN21 (stereo not drawn) [Example 51, 2-((3,5-difluoro-4-((2-(trifluoromethyl)pyrid-4-yl)oxy)benzyl)oxy)-6,7,7a,8,10,11-hexahydro-4H-pyrimidinyl [6′,1′:2,3]pyrimidine [6,1-c][1,4] oxazin-4-one]",8.18
9,"O=c1nc(OCc2cc(F)c(Oc3ccc(Cl)c(C(F)(F)F)c3)c(F)c2)cc2n1CCC1COCCN21 (stereo not drawn) [Example 52, 2-((4-(4-chloro-3-(trifluoromethyl)phenoxy)-3,5-di-fluorobenzyl)oxy)-6,7,7a,8,10,11-hexahydro-4H-pyrimidinyl [6′,1′:2,3] pyrimido[6,1-c][1,4] oxazin-4-one]",7.97
10,N#Cc1cc(COc2cc3n(c(=O)n2)CCC2COCCN32)ccc1Oc1cccc(C(F)(F)F)c1 (stereo not drawn) [Example 53],8.14
11,"O=c1nc(OCc2cc(F)c(Oc3ccnc(OC(F)(F)F)c3)c(F)c2)cc2n1CCC1COCCN21 (stereo not drawn) [Example 54, 2-((3,5-difluoro-4-((2-(trifluoro-methoxy)pyrid-4-yl)oxy)benzyl)oxy)-6,7,7a,8,10,11-hexahydro-4H-pyrimidinyl [6′,1′:2,3] pyrimidine [6,1-c][1,4] oxazin-4-one]",8.28
12,O=c1nc(OCc2cc(F)c(Oc3cnc(C(F)(F)F)nc3)c(F)c2)cc2n1CCC1COCCN21 (stereo not drawn) [Example 55],7.86
13,"O=c1nc(OCCc2ccc(Oc3ccc(Cl)c(C(F)(F)F)c3)cc2)cc2n1CCC1COCCN21 (stereo not drawn) [Example 56, 2-(4-(4-chloro-3-(trifluoromethyl)phenoxy)phenyl-ethoxy)-6,7,7a,8,10,11-hexahydro-4H-pyrimidinyl [6′,1′:2,3] pyrimidinyl[6,1-c] [1,4]oxazin-4-one]",7.70
14,"O=c1nc(OCc2ccc(Oc3ccnc(C(F)(F)F)c3)c(F)c2)c(F)c2n1CC[C@]13CO[C@H](CN21)C3 [Example 57, (7aS,10S)-1-fluoro-2-((3-fluoro-4-((2-(trifluoromethyl)pyrid-4-yl)oxy)benzyl)oxy)-6,7,10, 11-tetrahydro-4H, 8H-7a,10-methyl-pyrimidinyl[6′,1′: 2,3]pyrimidinyl [6,1-c][1,4]oxazin-4-one]",8.48
15,"CCc1c(OCc2ccc(Oc3ccnc(C(F)(F)F)c3)c(F)c2)nc(=O)n2c1N1C[C@@H]3C[C@@]1(CC2)CO3 [Example 60, (7aS,10S)-1-ethyl-2-((3-fluoro-4-((2-(trifluoromethyl)pyrid-4-yl)oxy)benzyl)oxy)-6,7,10, 11-tetrahydro-4H, 8H-7a,10-methyl-pyrimidinyl [6′,1′:2,3] pyrimidinyl[6,1-c] [1,4]oxazin-4-one]",7.91
16,"O=c1nc(OCc2cc(F)c(Oc3ccnc(Cl)c3)c(F)c2)c(F)c2n1CC[C@]13CO[C@H](CN21)C3 [Example 61, (7aS, 10S)-2-((4-((2-chloropyrid-4-yl)oxy)-3,5-difluorobenzyl)oxy)-1-fluoro-6,7,10,11-tetrahydro-4H,8H-7a, 10-methylamino-pyrimidine[6′,1′:2,3] pyrimidine[6,1-c] [1,4]oxazin-4-one]",8.15

# Results, then the compound that gave them:
row,pIC50,Structure (SMILES)
1,8.09,"CCC12CCCN1c1cc(OCc3cc(F)c(Oc4ccnc(C(F)(F)F)c4)c(F)c3)nc(=O)n1CC2 (stereo not drawn) [Example 38, 2-((3,5-difluoro-4-((2-(trifluoromethyl)pyrid-4-yl)oxy)benzyl)oxy)-7a-ethyl-6,7,7a,8,9,10-hexahydro-4H-pyrimido[1,6-a] pyrrolo[1,2-c] pyrimidine-4-one]"
2,7.61,"O=c1nc(OCc2ccc(Oc3ccnc(C(F)(F)F)c3)c(F)c2)cc2n1CCC1CCCCN21 (stereo not drawn) [Example 42, 2-((3-fluoro-4-((2-(trifluoromethyl)pyrid-4-yl)oxy)benzyl)oxy)-7,7a,8,9,10,11-hexahydro-4H,6H-pyridine[1,2-c]pyrimidine[1,6-a]pyrimidine-4-one]"
3,7.84,"O=c1nc(OCc2ccc(Oc3ccnc(C(F)(F)F)c3)c(F)c2)cc2n1CC[C@@H]1CCCCN21 [Example 47, (S)-2-((3-fluoro-4-((2-(trifluoromethyl)pyrid-4-yl)oxy)benzyl)oxy)-7,7a, 8,9,10,11-hexahydro-4H,6H-pyridino[1,2-c] pyrimidine[1,6-a] pyrimidine-4-one]"
4,8.29,COc1c(OCc2ccc(Oc3ccnc(C(F)(F)F)c3)c(F)c2)nc(=O)n2c1N1CCCC[C@H]1CC2 [Example 48]
5,8.80,"CC12CCCCN1c1cc(OCc3ccc(Oc4ccnc(C(F)(F)F)c4)c(F)c3)nc(=O)n1CC2 (stereo not drawn) [Example 49, 2-((3-fluoro-4-((2-(trifluoromethyl)pyrid-4-yl)oxy)benzyl)oxy)-7a-methyl-7,7a,8,9,10,11-hexahydro-4H,6H-pyridino[1,2-c] pyrimidine[1,6-a] pyrimidine-4-one]"
6,7.89,"Cc1cc(Oc2c(F)cc(COc3cc4n(c(=O)n3)CCC3(C)CCCCN43)cc2F)ccn1 (stereo not drawn) [Example 50, 2-((3,5-difluoro-4-((2-methylpyrid-4-yl)oxy)benzyl)oxy)-7a-methyl-7,7a,8,9,10,11-hexahydro-4H,6H-pyridino [1,2-c]pyrimidine [1,6-a]pyrimidine-4-one]"
7,8.47,"O=c1nc(OCc2ccc(Oc3ccnc(C(F)(F)F)c3)c(F)c2)c(Cl)c2n1CC[C@]13CO[C@H](CN21)C3 [Example 58, (7aS,10S)-1-chloro-2-((3-fluoro-4-((2-(trifluoromethyl)pyrid-4-yl)oxy)benzyl)oxy)-6,7,10, 11-tetrahydro-4H, 8H-7a,10-methyl-pyrimidinyl[6′,1′: 2,3]pyrimidinyl [6,1-c][1,4]oxazin-4-one]"
8,8.29,"Cc1c(OCc2ccc(Oc3ccnc(C(F)(F)F)c3)c(F)c2)nc(=O)n2c1N1C[C@@H]3C[C@@]1(CC2)CO3 [Example 59, (7aS,10S)-2-((3-fluoro-4-((2-(trifluoromethyl)pyrid-4-yl)oxy)benzyl)oxy)-1-methyl-6,7,10, 11-tetrahydro-4H, 8H-7a,10-methyl-pyrimidinyl[6′,1′: 2,3]pyrimidinyl [6,1-c][1,4]oxazin-4-one]"
